Values of other authors as cited in US6894093B2, “Materials free of endorine disruptive chemicals” (priority 2001, dated 2005).
Where two headings read alike, the source gives them in different places.

How the values were obtained:
[1] = tested on: estrogen receptor (ER)
[2] = parameters: key: Estrogenic (EA); Carcinogenic (CA) Activity; settings: plastic monomers

For `CC(C)(c1ccc(O)cc1)c1ccc(O)cc1` [Bisphenol A], the “endocrine disruptive activity” value ([1]; statement in background text) is given as “exhibit endocrine disruptive activity”, the “estrogenic activity” value ([1]; statement in background text) is given as “deleterious estrogenic activity” and the “Monomer Exhibits Estrogenic (EA) or Carcinogenic (CA) Activity” value [2] is given as “EA”.

In the case of `COc1ccc(O)c(C(C)(C)C)c1` [Butylated hydroxyanisole (BHA), Butylated hydroxyanisole], the ADI is given as 0 to 0.5 mg/kg.

In the case of `CCCCC(CC)COC(=O)c1ccccc1C(=O)OCC(CC)CCCC` (stereo not shown) [DEHP, di(2-ethylhexyl) phthalate], the “estrogenic activity” value ([1]; statement in background text) is given as “estrogen-mimicking”.

In the case of `CCCOC(=O)c1cc(O)c(O)c(O)c1` [Propyl gallate], the ADI is given as 0 to 2.5 mg/kg.

For `CC(C)(C)c1cc(O)ccc1O` [Tert-Butylhydroquinone (TBHQ), Tert-Butylhydroquinone], the ADI is listed as 0 to 0.2 mg/kg.

For `C=CCl` [Vinylchloride], the “Monomer Exhibits Estrogenic (EA) or Carcinogenic (CA) Activity” value [2] is listed as “CA”.

For “(di)Butyl hydroxy toluene [(di)Butyl hydroxy toluene (BHT)]”, the “Predicted Estrogenic Activity” value [1] is given as “Yes” and the “endocrine disruptive activity” value [1] is given as “exhibits endocrine disruptive activity”.
